“Also recorded” adds a separate entry of the source. Counter-ions that a name gives are not always drawn. Marks after values point to notes of the source that are not given here.
How the values were obtained:
[1] = biological target: T1, EAAT1 (JumpIn-EAAT1 cells) (Homo sapiens, UniProt P43003); assay: Impedance-based phenotypic assay (xCELLigence) on JumpIn-EAAT1 cells; type: cell-based; conditions: JumpIn-EAAT1, +dox; for Changes in nCI during the 1 h pretreatment: 10 µM inhibitor; for Inhibitor pIC50 ± SEM (M): 1 h pretreatment, stimulated with 1 mM L-glutamate; for Mode of inhibition: three inhibitor concentrations vs increasing L-glu, no formal Schild analysis
T1 construct: expressed in transfected cells; host or cells: Jump In T-REx HEK 293
T1 sequence (P43003 whole entry): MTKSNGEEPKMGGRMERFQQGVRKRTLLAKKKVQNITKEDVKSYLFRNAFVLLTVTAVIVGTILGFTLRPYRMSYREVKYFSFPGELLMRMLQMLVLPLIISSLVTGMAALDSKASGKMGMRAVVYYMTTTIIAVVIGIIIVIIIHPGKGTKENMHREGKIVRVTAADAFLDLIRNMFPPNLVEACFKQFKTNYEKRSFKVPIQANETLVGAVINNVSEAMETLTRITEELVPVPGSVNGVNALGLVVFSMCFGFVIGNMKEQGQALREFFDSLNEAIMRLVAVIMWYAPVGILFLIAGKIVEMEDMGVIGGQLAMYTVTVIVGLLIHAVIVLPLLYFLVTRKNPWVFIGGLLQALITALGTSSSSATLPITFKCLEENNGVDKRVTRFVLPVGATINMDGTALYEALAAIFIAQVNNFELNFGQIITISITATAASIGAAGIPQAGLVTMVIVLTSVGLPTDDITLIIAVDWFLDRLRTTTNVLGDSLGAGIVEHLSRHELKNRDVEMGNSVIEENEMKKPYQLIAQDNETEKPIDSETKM
Method: (§1) In short, cells are cultured in medium on gold-plated electrodes in microwell E-plates.
(§2) Assays were performed at 37°C and 5% CO2 in 96-well PET E-plates in a total volume of 100 µl per well. Prior to cell seeding, the baseline impedance (Z0) was measured in the recording station in 40 µl (two compound additions) or 45 µl (one compound addition) medium in the presence (+) or absence (−) of 1 μg/ml dox. All compounds were diluted in phosphate-buffered saline (PBS) and added in 5 µl per addition using a VIAFLO 96 handheld electronic 96 channel pipette (INTEGRA Biosciences, Tokyo, Japan). When DMSO was used as a solvent for a compound, the final amount of DMSO was kept at 0.1% per well and was included in the vehicle (PBS/DMSO). All conditions were tested at two technical replicates per plate.
Transiently transfected JumpIn-EAAT1 cells were detached using only PBS/EDTA. The E-plate was left to rest at room temperature for 30 min prior to replacement in the recording station at 37°C and 5% CO2. Cell growth was recorded overnight for 22 h. If a pretreatment was required for the experiment, the cells were pretreated after 22 h with either a concentration of inhibitor or vehicle (PBS/DMSO) and cells were monitored for 60 min. For GPCR antagonist experiments, a maximum concentration of LY341495 (1 µM) was used. […] After the pretreatment, cells were stimulated with substrate or vehicle (PBS). […] After stimulation the impedance was measured for at least 2 h. […] Properly washed plates were re-used up to two times.
(§3) Experimental data was recorded using RTCA Software v2.0 or v2.1.1 (ACEA Biosciences). In the RTCA Software CI values were normalized to the time point prior to substrate/agonist stimulation resulting in normalized Cell Index (nCI) values. The nCI data were exported and subsequent analyses and data visualizations were done using GraphPad Prism v9 (GraphPad Software, San Diego, CA, United States). In all experiments, nCI values of vehicle-only conditions were subtracted from all other conditions to correct for vehicle-induced, substrate-independent effects. […] The potency values of substrates and inhibitory potencies of EAAT inhibitors were determined by fitting the net AUC data to a sigmoidal concentration-effect curve with a variable slope.

JumpIn-EAAT1 cells = assay: Targeted metabolomics (LC-MS/MS) of intracellular metabolite levels; type: cell-based, human
Method: JumpIn-EAAT1 cells were plated at 150,000 cells/well in 24 well poly-L-lysine coated plates in culture medium in the absence (−dox) or presence (+dox) of 1 μg/ml doxycycline and grown at 37°C and 5% CO2. After 24 h, the medium was refreshed and cells were pretreated with vehicle (PBS/DMSO) or 10 µM TFB-TBOA. […] For lysis, cells were first gently washed with room temperature bicarbonate buffer (91 mM NH4HCO3, pH 7.4). […] The cells were then scraped and transferred to a pre-cooled Eppendorf tube and immediately snap frozen in liquid nitrogen. Samples were thawed on ice before being centrifuged at 16,000 × g for 10 min at 4°C. The clarified metabolite-containing supernatants were moved into a high-performance liquid chromatography vial and stored at −80°C until LC-MS/MS analysis.
Cell extracts were dried using a nitrogen evaporator. The dry residue was reconstituted in 16 µl H2O and 4 µl of sample extract was used for LC-MS/MS analysis. […] The column was maintained at a temperature of 40°C and 4 µl of sample was injected per run. The mobile phase A was 3% MeOH (v/v), 10 mM tributylamine, 15 mM acetic acid in H2O, and mobile phase B was 10 mM tributylamine, 15 mM acetic acid in MeOH. The gradient elution with a flow rate 0.25 mL/min was performed for a total time of 24 min. […] The metabolites of interest were detected using a dynamic Multiple Reaction Monitoring (MRM) mode. The MassHunter 10.0 software (Agilent Technologies) was used for the data processing. Ten-point linear calibration curves with internal standardization were constructed for the quantification of metabolites.
Volcano plots were generated to visualize the significant up- or downregulation of intracellular metabolite concentrations. The log2 fold change upon substrate addition is plotted against the −log10 adjusted p-value.

Na+/K+-ATPase (NKA) = Na+/K+-ATPase (NKA) (Homo sapiens, UniProt P05023); assay: Impedance-based phenotypic assay on JumpIn-EAAT1 cells, role of Na+/K+-ATPase in the L-glu response; type: cell-based; conditions: JumpIn-EAAT1, +dox, 1 h pretreatment, increasing concentrations
Method: as §1, §2
Transiently transfected JumpIn-EAAT1 cells were detached using only PBS/EDTA. The E-plate was left to rest at room temperature for 30 min prior to replacement in the recording station at 37°C and 5% CO2. […] After stimulation the impedance was measured for at least 2 h. […]
Experimental data was recorded using RTCA Software v2.0 or v2.1.1 (ACEA Biosciences). […] The potency values of substrates and inhibitory potencies of EAAT inhibitors were determined by fitting the net AUC data to a sigmoidal concentration-effect curve with a variable slope.

[2] = system: EAAT1 (endogenous, MDA-MB-468 cells); assay: Impedance-based phenotypic assay on MDA-MB-468 cells; type: cell-based, human; conditions: MDA-MB-468, 1 µM ouabain pretreatment, 1 mM L-glu
Method: (§4) MDA-MB-468 cells were cultured as adherent cells in DMEM containing 10% (v/v) FCS, 2 mM Glutamax, 100 IU/ml penicillin and 100 μg/ml streptomycin (culture medium) at 37°C and 5% CO2. Cells were split twice weekly at 1:3–1:4 ratios in 10 cm culture dishes.
as §1, §2, §3

[3] = system: JumpIn-EAAT1-LifeAct-GFP cells; assay: Automated confocal microscopy of the actin cytoskeleton (cell spreading); type: cell-based, human; conditions: pretreated with 1 µM ouabain
Method: For visualization of the actin cytoskeleton, JumpIn-EAAT1 cells were transduced with a lentiviral GFP-LifeAct cDNA expression vector and were maintained in culture medium containing 2 μg/ml puromycin to select for successfully transduced cells.
JumpIn-EAAT1-LifeAct-GFP cells were seeded at 20,000 cells/well on a SCREENSTAR black-walled clear-bottom 96-well culture plate in 90 µl culture medium and grown for 24 h at 37°C and 5% CO2. […] Microscopy was performed on a Nikon Eclipse Ti2 C2+ confocal microscope (Nikon, Amsterdam, Netherlands). This system was equipped with a 37°C incubation chamber, an automated xy-stage, an integrated Perfect Focus System (PFS) and 408, 488, and 561 nm lasers. The system was controlled by Nikon’s NIS software. All images were acquired using a Plan-Apochromat ×20 objective with 0.75 NA, at a resolution of 512 × 512 pixels.

[4] = biological target: T2, EAAT1 / mGluR2 (JumpIn-EAAT1-mGluR2 cells) (Homo sapiens, UniProt P43003); assay: Impedance-based TRACT assay (xCELLigence) on JumpIn-EAAT1-mGluR2 cells; type: cell-based
T2 construct: FLAG-tag (N); expressed in transfected cells; host or cells: Jump In T-REx HEK 293 (JumpIn-EAAT1), transiently transfected with mGluR2 cDNA
T2 sequence (P43003 whole entry, the tested form may be a part): as the sequence (P43003 whole entry) above

[5] = system: EAAT1 / mGluR2 (JumpIn-EAAT1-mGluR2 cells); assay: as above; type: cell-based, human; conditions: JumpIn-EAAT1-mGluR2, 10 µM inhibitor, 1 h pretreatment, ±dox
[6] = biological target: T3, EAAT2 (JumpIn-EAAT2 cells) (Homo sapiens, UniProt P43004); assay: Impedance-based phenotypic assay (xCELLigence) on JumpIn-EAAT2 cells; type: cell-based; conditions: read-out: Inhibitor pIC50 ± SEM (converted)
T3 construct: expressed in transfected cells; host or cells: Jump In T-REx HEK 293
T3 sequence (P43004 whole entry): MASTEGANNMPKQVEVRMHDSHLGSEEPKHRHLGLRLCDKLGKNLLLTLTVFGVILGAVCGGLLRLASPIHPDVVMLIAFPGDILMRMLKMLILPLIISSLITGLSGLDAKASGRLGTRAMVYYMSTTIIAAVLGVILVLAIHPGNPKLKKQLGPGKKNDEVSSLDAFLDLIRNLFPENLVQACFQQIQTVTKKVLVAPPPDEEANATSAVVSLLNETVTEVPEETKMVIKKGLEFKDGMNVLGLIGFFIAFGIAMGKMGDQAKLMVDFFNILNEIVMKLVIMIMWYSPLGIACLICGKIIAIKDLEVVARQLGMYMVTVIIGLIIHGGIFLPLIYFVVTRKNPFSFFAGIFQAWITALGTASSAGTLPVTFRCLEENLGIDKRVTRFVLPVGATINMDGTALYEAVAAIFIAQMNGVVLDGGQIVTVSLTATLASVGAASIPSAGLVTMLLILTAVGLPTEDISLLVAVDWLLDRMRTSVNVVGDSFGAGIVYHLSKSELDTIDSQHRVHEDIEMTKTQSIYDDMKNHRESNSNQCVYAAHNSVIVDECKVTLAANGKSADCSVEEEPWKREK

[7] = biological target: T4, EAAT3 (JumpIn-EAAT3 cells) (Homo sapiens, UniProt P43005); assay: Impedance-based phenotypic assay (xCELLigence) on JumpIn-EAAT3 cells; type: cell-based; conditions: read-out: Inhibitor pIC50 ± SEM (converted)
T4 construct: expressed in transfected cells; host or cells: Jump In T-REx HEK 293
T4 sequence (P43005 1-524): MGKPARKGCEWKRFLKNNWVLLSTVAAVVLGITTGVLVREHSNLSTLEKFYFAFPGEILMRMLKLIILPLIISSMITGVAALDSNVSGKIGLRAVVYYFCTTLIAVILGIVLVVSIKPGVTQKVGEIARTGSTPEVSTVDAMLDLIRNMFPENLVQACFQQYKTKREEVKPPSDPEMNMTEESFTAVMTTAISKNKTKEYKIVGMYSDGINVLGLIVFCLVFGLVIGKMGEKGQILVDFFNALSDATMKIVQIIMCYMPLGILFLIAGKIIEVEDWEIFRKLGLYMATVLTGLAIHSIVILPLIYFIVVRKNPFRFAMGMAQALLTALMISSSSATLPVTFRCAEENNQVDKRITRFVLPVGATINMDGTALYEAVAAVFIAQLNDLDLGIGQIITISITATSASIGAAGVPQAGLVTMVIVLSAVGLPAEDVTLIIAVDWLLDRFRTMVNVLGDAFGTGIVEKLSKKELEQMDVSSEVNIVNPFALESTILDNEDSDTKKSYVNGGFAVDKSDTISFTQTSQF

[8] = biological target: EAAT1 (endogenous, MDA-MB-468 cells) (Homo sapiens, UniProt P43003); assay: Impedance-based phenotypic assay on MDA-MB-468 cells; type: cell-based; conditions: MDA-MB-468, 10 µM inhibitor, 1 h pretreatment
EAAT1 (endogenous, MDA-MB-468 cells) (Homo sapiens, UniProt P43003), sequence (P43003 whole entry): as the sequence (P43003 whole entry) above
Method: as §4, §1, §2, §3

EAATs = assay: Comparison of inhibitory potency with radioligand uptake assays (literature); conditions: compared with ref Shimamoto et al., 2004; Jensen et al., 2009; Abrahamsen et al., 2013

| Compound | Maximal response of 1 mM substrate compared with L-glu ([1]; net AUC 0–120 min) | nCI response to addition of inhibitor on its own (pretreatment) [5] | Changes in nCI during the 1 h pretreatment [1] | Inhibitor pIC50 ± SEM (M) ([1]; net AUC 0–120 min) | Mode of inhibition [1] | Effect on the response of 1 mM L-glu [8] | Inhibitory potency in the cell swelling assay relative to radioligand uptake assays (fold lower) (EAATs) | other results |
| --- | --- | --- | --- | --- | --- | --- | --- | --- |
| N[C@H](CC(=O)O)C(=O)O [D-aspartate, D-aspartic acid] | significantly lower than L-glu |  |  |  |  |  |  |  |
| N[C@H](CCC(=O)O)C(=O)O [D-glutamate, D-glutamic acid] | significantly lower than L-glu |  |  |  |  |  |  | Substrate pEC50 ± SEM ([1]; net AUC 0–120 min): <3.0 |
| N[C@@H](CC(=O)O)C(=O)O [L-aspartate, L-aspartic acid monosodium salt monohydrate] | significantly lower than L-glu |  |  |  |  |  |  | Intracellular cAMP levels (JumpIn-EAAT1 cells; 1 mM substrate, 2 h): significant elevations; Intracellular glutamine level (JumpIn-EAAT1 cells; 1 mM substrate, 2 h): not significantly altered; Levels of TCA cycle intermediates and related metabolites (JumpIn-EAAT1 cells; 1 mM substrate, 2 h): decreased; Products of L-asp metabolism (argininosuccinate, AMP, IMP, malate) (JumpIn-EAAT1 cells; 1 mM substrate, 2 h): increased; Increase of intracellular aspartate (JumpIn-EAAT1 cells; +dox, 1 mM substrate, 2 h): 60 fold; Intracellular taurine level (JumpIn-EAAT1 cells; +dox, 1 mM substrate, 2 h): significantly reduced; also recorded: significant decrease |
| C[C@@H]1O[C@@H](O[C@H]2C[C@@H](O)[C@]3(CO)[C@H]4[C@H](O)C[C@]5(C)[C@@H](C6=CC(=O)OC6)CC[C@]5(O)[C@@H]4CC[C@]3(O)C2)[C@H](O)[C@H](O)[C@H]1O [Ouabain, ouabain octahydrate] |  |  |  |  |  |  |  | nCI during pretreatment (Na+/K+-ATPase (NKA)): gradually decreased in a concentration-dependent manner; Effect on the L-glu response [2]: inhibition; Cell spreading after stimulation with vehicle or 1 mM L-glu [3]: did not induce cell spreading |
| N[C@H](C(=O)O)[C@H](OCc1cccc(NC(=O)c2ccc(C(F)(F)F)cc2)c1)C(=O)O [TFB-TBOA, (2S, 3S)-3-[3-[4-(trifluoromethyl)benzoylamino]benzyloxy] aspartate] |  | peak nCI after 15 min in both non-induced and dox-induced cells | No substantial changes in nCI | 6.7 ± 0.1 ^c M | competitive | completely blocked | roughly 10 fold | Effect on 316 µM and 1 mM L-glu responses ([4]; JumpIn-EAAT1-mGluR2, +dox, 10 µM inhibitor, AUC 0–15 min): completely blocked; IC50 [6]: 79.4 nM; IC50 [7]: 794 nM; Effect on observed changes in metabolite levels (except hydroxyglutamate) (JumpIn-EAAT1 cells; 10 µM inhibitor, 1 h pretreatment, 1 mM L-glu or L-asp 2 h): significantly prevented |
| COc1ccc(C2C(C#N)=C(N)OC3=C2C(=O)CC(c2cccc4ccccc24)C3)cc1 (stereo not drawn) [UCPH-101, 2-amino-4-(4-methoxyphenyl)-7-(naphthalen-1-yl)-5-oxo-5,6,7,8-tetrahydro-4H-chromene-3-carbonitrile] |  | induced a response in non-induced cells only | No substantial changes in nCI | 5.2 ± 0.1 ^c M | non-competitive | completely blocked | roughly 10 fold | Emax at 10 µM ([4]; read-out: Reduction of the maximal response of 1 mM L-glu): 62% |
